Read-outs that look alike come from different tables or passages of the source.
Assays:
[1] = system: KRas-mediated Phosphorylation of ERK in H358 cells; assay: Cisbio HTRF pERK assay, H358 cells; format: cell-based; details: H358 cells, 3 hrs compound, read-out: Inhibition (HTRF IC50 nM) of KRas-mediated Phosphorylation of ERK, H358
[2] = system: KRas-mediated Phosphorylation of ERK in AsPC-1 cells; assay: Cisbio HTRF pERK assay, AsPC-1 cells; format: cell-based; details: 3 hrs compound, read-out: Inhibition (HTRF IC50 nM) of KRas-mediated Phosphorylation of ERK, AsPC-1
[3] = target: T1, KRas^WT (Homo sapiens, UniProt P01116); assay: KRas TR-FRET tracer displacement binding assay, WT; details: 60-minute incubation
T1 construct: Biotinylated KRas (corresponding to amino acids 1-169, produced at Accelegan Inc.); biotin (biotinylated); purchased Accelegan Inc
T1 sequence (P01116 1-169 isoform P01116-2): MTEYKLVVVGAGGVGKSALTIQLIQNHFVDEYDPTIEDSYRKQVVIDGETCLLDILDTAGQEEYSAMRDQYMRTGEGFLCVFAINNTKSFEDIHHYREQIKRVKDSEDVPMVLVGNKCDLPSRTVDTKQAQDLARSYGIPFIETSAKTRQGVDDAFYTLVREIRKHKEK
Description: (§1) KRas^WT, KRas^G12A, KRas^G12C, KRas^G12D, KRas^G12R, KRas^G12S, KRas^G12V, KRas^G13D, or KRas^Q61H was used in the assay.
(§2) The ability of a compound to bind to KRas was measured using a TR-FRET displacement assay. Biotinylated KRas (corresponding to amino acids 1-169, produced at Accelegan Inc.) was incubated with custom made Cy5 labelled tracer, terbium streptavidin (Cisbio Inc.) and compound (1% DMSO final) in buffer (50 mM HEPES, pH 7.5, 5 mM MgCl2, 0.005% Tween-20 and 1 mM DTT). After a 60-minute incubation at room temperature, the reaction was measured using a BMG LABTECH CLARIO star Plus via TR-FRET.

[4] = system: KRas-mediated Phosphorylation of ERK in H2009 cells; assay: Cisbio HTRF pERK assay, H2009 cells; format: cell-based; details: read-out: Inhibition (HTRF IC50 nM) of KRas-mediated Phosphorylation of ERK, H2009
[5] = system: KRas-mediated Phosphorylation of ERK in A549 cells; assay: Cisbio HTRF pERK assay, A549 cells; format: cell-based; details: A549 cells, 3 hrs compound, read-out: Inhibition (HTRF IC50 nM) of KRas-mediated Phosphorylation of ERK, A549
[6] = target: T2, KRas^G12V (Homo sapiens, UniProt P01116, G12V); assay: KRas TR-FRET tracer displacement binding assay, G12V; details: 60-minute incubation
T2 construct: Biotinylated KRas (corresponding to amino acids 1-169, produced at Accelegan Inc.); biotin (biotinylated); purchased Accelegan Inc
T2 sequence (P01116 1-169 isoform P01116-2 G12V): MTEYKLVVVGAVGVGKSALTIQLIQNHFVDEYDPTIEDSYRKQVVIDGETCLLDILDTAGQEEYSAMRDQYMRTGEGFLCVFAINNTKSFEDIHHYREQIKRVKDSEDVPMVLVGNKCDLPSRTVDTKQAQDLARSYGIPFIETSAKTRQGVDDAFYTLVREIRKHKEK
Description: as §1, §2

[7] = system: KRas-mediated Phosphorylation of ERK in H727 cells; assay: Cisbio HTRF pERK assay, H727 cells; format: cell-based; details: 3 hrs compound, read-out: Inhibition (HTRF IC50 nM) of KRas-mediated Phosphorylation of ERK, H727
[8] = system: KRas-mediated Phosphorylation of ERK in PSN1 cells; assay: Cisbio HTRF pERK assay, PSN1 cells; format: cell-based; details: 3 hour compound, read-out: Inhibition (HTRF IC50 nM) of KRas-mediated Phosphorylation of ERK, PSN1
Description: Inhibition of KRas Phosphorylation of ERK (HTRF) by Exemplary Compounds of Formula (I) • Cisbio HTRF Advanced pERK Assay Catalog #64AERPEH • Cell: MKN1, PSN1 • Procedure: • Day 1: Seed 6,000 cells/well −25 μl/well in 384-well white solid bottom plate; RPM1_10% FBS.

[9] = system: KRas-mediated Phosphorylation of ERK in H460 cells; assay: Cisbio HTRF pERK assay, H460 cells; format: cell-based; details: H460 cells, 3 hrs compound, read-out: Inhibition (HTRF IC50 nM) of KRas-mediated Phosphorylation of ERK, H460
[10] = target: T3, KRas^G12C (Homo sapiens, UniProt P01116, G12C); assay: KRas TR-FRET tracer displacement binding assay, G12C; details: 60-minute incubation
T3 construct: Biotinylated KRas (corresponding to amino acids 1-169, produced at Accelegan Inc.); biotin (biotinylated); purchased Accelegan Inc
T3 sequence (P01116 1-169 isoform P01116-2 G12C): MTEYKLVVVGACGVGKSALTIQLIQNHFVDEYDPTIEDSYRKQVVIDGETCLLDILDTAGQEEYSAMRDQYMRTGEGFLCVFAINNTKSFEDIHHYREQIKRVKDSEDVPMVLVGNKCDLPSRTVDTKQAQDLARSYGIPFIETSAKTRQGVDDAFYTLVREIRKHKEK
Description: as §1, §2

[11] = system: KRas-mediated Phosphorylation of ERK in HCT116 cells; assay: Cisbio HTRF pERK assay, HCT116 cells; format: cell-based; details: HCT116 cells, 3 hrs compound, read-out: Inhibition (HTRF IC50 nM) of KRas-mediated Phosphorylation of ERK, HCT116
[12] = target: T4, KRas^G12S (Homo sapiens, UniProt P01116, G12S); assay: KRas TR-FRET tracer displacement binding assay, G12S; details: 60-minute incubation
T4 construct: Biotinylated KRas (corresponding to amino acids 1-169, produced at Accelegan Inc.); biotin (biotinylated); purchased Accelegan Inc
T4 sequence (P01116 1-169 isoform P01116-2 G12S): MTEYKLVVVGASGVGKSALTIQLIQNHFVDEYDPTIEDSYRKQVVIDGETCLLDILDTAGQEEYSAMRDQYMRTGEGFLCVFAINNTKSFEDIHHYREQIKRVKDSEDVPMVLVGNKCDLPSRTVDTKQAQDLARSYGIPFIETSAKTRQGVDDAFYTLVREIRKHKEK
Description: as §1, §2

[13] = target: T5, KRas^G12D (Homo sapiens, UniProt P01116, G12D); assay: KRas TR-FRET tracer displacement binding assay, G12D; details: 60-minute incubation
T5 construct: Biotinylated KRas (corresponding to amino acids 1-169, produced at Accelegan Inc.); biotin (biotinylated); purchased Accelegan Inc
T5 sequence (P01116 1-169 isoform P01116-2 G12D): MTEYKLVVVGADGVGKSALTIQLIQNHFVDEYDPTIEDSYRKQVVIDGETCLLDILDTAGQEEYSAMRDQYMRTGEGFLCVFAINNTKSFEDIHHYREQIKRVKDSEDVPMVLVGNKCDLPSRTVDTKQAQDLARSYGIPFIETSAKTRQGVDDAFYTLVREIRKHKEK
Description: as §1, §2

[14] = Homo sapiens, NCI-H2009, H2009 cells

IC50 [3] [nM] | IC50 [6] [nM] | IC50 [10] [nM] | IC50 [12] [nM] | IC50 [13] [nM] | IC50 ([1]; Homo sapiens, NCI-H358, 3 h) [nM] | IC50 ([2]; Homo sapiens, ASPC1, 3 h) [nM] | IC50 ([5]; Homo sapiens, A549, 3 h) [nM] | IC50 ([7]; Homo sapiens, NCI-H727, 3 h) [nM] | IC50 ([8]; Homo sapiens, PSN1, 3 h) [nM] | IC50 ([9]; Homo sapiens, NCI-H460, 3 h) [nM] | IC50 ([11]; Homo sapiens, HCT-116, 3 h) [nM] | IC50 [4, 14] [nM] | Compound | also measured
< 2 | 2 | < 2 | < 2 | 3 | 3 | 22 | 15 | 12 | 1270 | 13 | 18 | – | N#Cc1c(N)sc2c(F)ccc(-c3c(Cl)cc4c(N5CCCOCC5)nc(OC[C@@]56CCCN5C[C@H](F)C6)nc4c3F)c12 [Example 211, 2-amino-4-(6-chloro-8-fluoro-2-(((2R,7aS)-2-fluorotetrahydro-1H-pyrrolizin-7a(5H)-yl)methoxy)-4-(1,4-oxazepan-4-yl)quinazolin-7-yl)-7-fluorobenzo[b]thiophene-3-carbonitrile] | –
– | – | – | – | – | 10 | 21 | 38 | 22 | 1190 | 25 | 54 | 5 | N#Cc1c(N)sc2c(F)ccc(-c3c(Cl)cc4c(N5CCCCCC5)nc(OC[C@@]56CCCN5C[C@H](F)C6)nc4c3F)c12 [Example 210, 2-amino-4-(4-(azepan-1-yl)-6-chloro-8-fluoro-2-(((2R,7aS)-2-fluorotetrahydro-1H-pyrrolizin-7a(5H)-yl)methoxy)quinazolin-7-yl)-7-fluorobenzo[b]thiophene-3-carbonitrile] | –
– | – | – | – | – | 57 | 1650 | 720 | 429 | 5110 | 365 | 566 | 80 | N#Cc1c(N)sc2c(F)ccc(-c3c(Cl)cc4c(NC5CS(=O)(=O)C5)nc(OC[C@@]56CCCN5C[C@H](F)C6)nc4c3F)c12 [Example 218, 2-amino-4-(6-chloro-4-((1,1-dioxidothietan-3-yl)amino)-8-fluoro-2-(((2R,7aS)-2-fluorotetrahydro-1H-pyrrolizin-7a(5H)-yl)methoxy)quinazolin-7-yl)-7-fluorobenzo[b]thiophene-3-carbonitrile] | –
2 | < 2 | 4 | 2 | 7 | 9 | 93 | 68 | 27 | 1690 | 47 | 83 | 15 | N#Cc1c(N)sc2c(F)ccc(-c3c(Cl)cc4c(N5CCC5CO)nc(OC[C@@]56CCCN5C[C@H](F)C6)nc4c3F)c12 (stereo partly drawn) [Example 209, 2-amino-4-(6-chloro-8-fluoro-2-(((2R,7aS)-2-fluorotetrahydro-1H-pyrrolizin-7a(5H)-yl)methoxy)-4-(2-(hydroxymethyl)azetidin-1-yl)quinazolin-7-yl)-7-fluorobenzo[b]thiophene-3-carbonitrile] | –
– | – | – | – | – | 63 | 200 | 200 | 104 | 3350 | 145 | 498 | 24 | CN(c1nc(OC[C@@]23CCCN2C[C@H](F)C3)nc2c(F)c(-c3ccc(F)c4sc(N)c(C#N)c34)c(Cl)cc12)[C@H]1C[C@@H]1F [Example 202, 2-amino-4-(6-chloro-8-fluoro-4-(((1S,2S)-2-fluorocyclopropyl)(methyl)amino)-2-(((2R,7aS)-2-fluorotetrahydro-1H-pyrrolizin-7a(5H)-yl)methoxy)quinazolin-7-yl)-7-fluorobenzo[b]thiophene-3-carbonitrile] | –

The remaining lines, values behind:

Compound | IC50 [3] [nM] | IC50 [6] [nM] | IC50 [10] [nM] | IC50 [12] [nM] | IC50 [13] [nM] | IC50 ([1]; Homo sapiens, NCI-H358, 3 h) [nM] | IC50 ([2]; Homo sapiens, ASPC1, 3 h) [nM] | IC50 ([5]; Homo sapiens, A549, 3 h) [nM] | IC50 ([7]; Homo sapiens, NCI-H727, 3 h) [nM] | IC50 ([8]; Homo sapiens, PSN1, 3 h) [nM] | IC50 ([9]; Homo sapiens, NCI-H460, 3 h) [nM] | IC50 ([11]; Homo sapiens, HCT-116, 3 h) [nM] | IC50 [4, 14] [nM] | also measured
Cc1c(F)c(N)nc(-c2c(Cl)cc3c(NC(C)c4cccnc4N)nc(OC[C@@]45CCCN4C[C@H](F)C5)nc3c2F)c1C(F)(F)F (single isomer, unassigned; isomer 2) [Example 173] | 751 | 430 | 454 | 331 | 661 | – | – | – | – | – | – | – | – | IC50 [1]: 95 nM; IC50 [2]: 1890 nM; IC50 ([4]; H2009 cells): 40 nM; IC50 [5]: 244 nM; IC50 [7]: 252 nM; IC50 [8]: > 10000 nM; IC50 [9]: 511 nM; IC50 [11]: 2900 nM
Cc1c(F)c(N)nc(-c2c(Cl)cc3c(NC(C)c4cccnc4N)nc(OC[C@@]45CCCN4C[C@H](F)C5)nc3c2F)c1C(F)(F)F (single isomer, unassigned; isomer 1) [Example 172] | 11 | 3 | < 2 | 3 | 34 | – | – | – | – | – | – | – | – | IC50 [1]: 15 nM; IC50 [2]: 794 nM; IC50 ([4]; H2009 cells): 8 nM; IC50 [5]: 111 nM; IC50 [7]: 111 nM; IC50 [8]: 4290 nM; IC50 [9]: 182 nM; IC50 [11]: 841 nM
N#Cc1c(N)sc2c(F)ccc(-c3c(Cl)cc4c(NCCS(N)(=O)=O)nc(OC[C@@]56CCCN5C[C@H](F)C6)nc4c3F)c12 [Example 201, 2-((7-(2-amino-3-cyano-7-fluorobenzo[b]thiophen-4-yl)-6-chloro-8-fluoro-2-(((2R,7aS)-2-fluorotetrahydro-1H-pyrrolizin-7a(5H)-yl)methoxy)quinazolin-4-yl)amino)ethane-1-sulfonamide] | 3 | 3 | 3 | 2 | 3 | 1780 | 4690 | > 10000 | > 10000 | > 10000 | 5340 | > 10000 | – | –
N#Cc1c(N)sc2c(F)ccc(-c3c(C4CC4)cc4c(N5C[C@H]6CC[C@@H](C5)N6)nc(OC[C@@]56CCCN5C[C@H](F)C6)nc4c3F)c12 [Example 208, 4-(4-((1R,5S)-3,8-diazabicyclo[3.2.1]octan-3-yl)-6-cyclopropyl-8-fluoro-2-(((2R,7aS)-2-fluorotetrahydro-1H-pyrrolizin-7a(5H)-yl)methoxy)quinazolin-7-yl)-2-amino-7-fluorobenzo[b]thiophene-3-carbonitrile] | 4 | 10.4 | 7 | 4 | < 2 | 167 | 4 | 418 | 3280 | 2390 | 260 | 90 | – | –

— US20240025907A1, “QUINAZOLINE PAN-KRas INHIBITORS” (Mirati Therapeutics, Inc., priority 2022, published 2024)
